According to PubChem BioAssay AID2060508 (Molecular Pharmacology Branch, DTP, NCI, 2025):
pIC50: −log10 of the molar value.

Each compound was assayed on 454973-116-R2-J3-PDC spheroids, viability, % test/control (assay: Anticancer human tumor 454973-116-R2-J3-PDC patient-derived pancreatic carcinoma cell line growth inhibition [GQUAD]). Conditions: curve of first compound; second compound 0.0316 µM; spheroids with HUVEC and MSC.
Text: DNA G-quadruplex Stabilizer Agents in Combinations in Complex Spheroids
A high-throughput screen of multi-cell type tumor spheroids was designed to identify active combinations of DNA G-quadruplex stabilizer agents and targeted small molecules. Complex spheroids include a stromal component modeled by human endothelial cells (HUVEC) and fibroblasts modeled by human mesenchymal stem cells (MSCs). The concentration ranges selected for each drug and investigational agent were based upon clinically achievable concentrations if the clinical Cmax of the agent was known.
Compounds. The drugs and investigational agents: pidnarulex (CX-5461; NSC782164), APTO-253 (NSC789042), BRACO-19 (NSC847499), peposertib (NSC802822), ceralasertib (NSC780249), elimusertib (NSC800525), camonsertib (NSC841442), AZD-1390 (NSC803789), olaparib (NSC753686), talazoparib (NSC767125), ART-558 (NSC835418), sotorasib (NSC818433), MRTX-1133 (NSC836407), SN-38 (NSC673596), topotecan (NSC609699), etoposide (NSC141540), doxorubicin (NSC123127), gemcitabine (NSC613327), 5-fluorouracil (NSC19893), paclitaxel (NSC125973), vemurafenib (NSC761431), panobinostat (NSC761190), R-306465 (JNJ-16241199; NSC773264), adavosertib (NSC754352), TP-3654 (NSC805149), carboplatin (NSC241240), KSQ-4279 (NSC840948), and staurosporine (NSC755774) were obtained from the National Cancer Institute (NCI) Developmental Therapeutics Program Chemical Repository (34). The FDA-approved anticancer drug set is available from the NCI Developmental Therapeutics Program. […] The stock solutions were prepared in dimethyl sulfoxide (DMSO, Sigma-Aldrich, St. Louis, MO, cat. D2650) at 800-fold the tested concentration and stored at -70 degrees C prior to their use. All drugs and investigational agents were tested over a range starting from a high concentration at or near the clinical Cmax and decreasing in half-log increments. If the clinical Cmax for an agent had not been determined, the highest concentration tested was 10 microM.
2.3 Cell Culture. All cells were maintained in an incubator at 37 degrees C and 5% CO2 with 95% humidity. The PDC lines were cultured according to standard operating procedures established by the NCI PDMR. All PDCs were thawed and cultured in Matrigel-coated flasks prepared with a working solution of 1X Ham's F-12 nutrient mix, without supplementation (Invitrogen, cat. 11765054), 100 U/mL penicillin-streptomycin (Invitrogen, cat. 15140122), and 2.5% Matrigel (Corning Inc., cat. 354248) for the first three passages. The 857933-349-R-J2-PDC line was cultured in 6C/Colon 1B media, which includes advanced DMEM/F-12 (Thermo Fisher Scientific, cat. 12634028), 10 mM HEPES (Thermo Fisher Scientific, cat. 15630080), 1X GlutaMAX supplement (Thermo Fisher Scientific, cat. 35050061), 0.1 mg/mL primocin (InvivoGen, cat. ant-pm-2), 10% defined fetal bovine serum, heat inactivated (HyClone Laboratories Inc., cat. SH30070.03HI), 50% L-WRN conditioned media (ATCC, cat. CRL-3276), 1.25 mM N-Acetyl-L-cysteine (Sigma-Aldrich, cat. A9165), 10 mM nicotinamide (Sigma-Aldrich, cat. N0636), 1X B-27 supplement (Thermo Fisher Scientific, cat. 17504044), 1X N-2 supplement (Thermo Fisher Scientific, cat. 17502048), 10 microM Y-27632 dihydrochloride (Tocris Bioscience, cat. 1254), and 50 ng/mL human EGF recombinant protein (Thermo Fisher Scientific, cat. PHG0311). The 485176-168-R4-J1-PDC line was cultured in Panc media, which includes all 6C/Colon 1B media components plus 100 ng/mL human FGF-10 (Thermo Fisher Scientific, cat. 100-26), 500 nM SB-431542 (Selleckchem, cat. S1067), and gastrin (Tocris, cat. 3006).
[…]
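Note: spheroids exposed to compounds for seven days.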

Compared with `CC1COCCN1c1cc(C2(O)CC3CCC(C2)O3)c2cnn(-c3ccn[nH]3)c2n1` (stereo unspecified) + Cc1cnc(CNC(=O)c2c(=O)c3ccc(N4CCCN(C)CC4)nc3n3c2sc2ccccc23)cn1, `O=C(c1cc(Cc2n[nH]c(=O)c3ccccc23)ccc1F)N1CCN(C(=O)C2CC2)CC1` + Cc1cnc(CNC(=O)c2c(=O)c3ccc(N4CCCN(C)CC4)nc3n3c2sc2ccccc23)cn1 is 2.45 log units lower in pIC50: 7.50 for the first, 5.05 for the second.

With `COc1ccc([C@@H](O)c2cc(-c3ncnc4cc(N5CCOCC5)ccc34)c(F)cc2Cl)nn1` + Cc1cnc(CNC(=O)c2c(=O)c3ccc(N4CCCN(C)CC4)nc3n3c2sc2ccccc23)cn1 the pIC50 was 6.09.

Same assay, conditions: curve of first compound; second compound 0.1 µM; spheroids with HUVEC and MSC

First: CC1COCCN1c1cc(C2(O)CC3CCC(C2)O3)c2cnn(-c3ccn[nH]3)c2n1 (stereo unspecified) + Cc1cnc(CNC(=O)c2c(=O)c3ccc(N4CCCN(C)CC4)nc3n3c2sc2ccccc23)cn1
Second: O=C(c1cc(Cc2n[nH]c(=O)c3ccccc23)ccc1F)N1CCN(C(=O)C2CC2)CC1 + Cc1cnc(CNC(=O)c2c(=O)c3ccc(N4CCCN(C)CC4)nc3n3c2sc2ccccc23)cn1
The pIC50 of the first is higher: greater than 7.50 for the first, 5.12 for the second. The first is the more potent here.

Compound `COc1ccc([C@@H](O)c2cc(-c3ncnc4cc(N5CCOCC5)ccc34)c(F)cc2Cl)nn1` + Cc1cnc(CNC(=O)c2c(=O)c3ccc(N4CCCN(C)CC4)nc3n3c2sc2ccccc23)cn1 has a pIC50 of 6.57.

Same assay, conditions: curve of first compound; second compound 0.316 µM; spheroids with HUVEC and MSC

Compared with `CC1COCCN1c1cc(C2(O)CC3CCC(C2)O3)c2cnn(-c3ccn[nH]3)c2n1` (stereo unspecified) + Cc1cnc(CNC(=O)c2c(=O)c3ccc(N4CCCN(C)CC4)nc3n3c2sc2ccccc23)cn1, `O=C(c1cc(Cc2n[nH]c(=O)c3ccccc23)ccc1F)N1CCN(C(=O)C2CC2)CC1` + Cc1cnc(CNC(=O)c2c(=O)c3ccc(N4CCCN(C)CC4)nc3n3c2sc2ccccc23)cn1 is lower in pIC50: greater than 7.50 for the first, 5.21 for the second.

With `COc1ccc([C@@H](O)c2cc(-c3ncnc4cc(N5CCOCC5)ccc34)c(F)cc2Cl)nn1` + Cc1cnc(CNC(=O)c2c(=O)c3ccc(N4CCCN(C)CC4)nc3n3c2sc2ccccc23)cn1 the pIC50 was 6.38.

Same assay, conditions: curve of first compound; second compound 1 µM; spheroids with HUVEC and MSC

Compared with `CC1COCCN1c1cc(C2(O)CC3CCC(C2)O3)c2cnn(-c3ccn[nH]3)c2n1` (stereo unspecified) + Cc1cnc(CNC(=O)c2c(=O)c3ccc(N4CCCN(C)CC4)nc3n3c2sc2ccccc23)cn1, `O=C(c1cc(Cc2n[nH]c(=O)c3ccccc23)ccc1F)N1CCN(C(=O)C2CC2)CC1` + Cc1cnc(CNC(=O)c2c(=O)c3ccc(N4CCCN(C)CC4)nc3n3c2sc2ccccc23)cn1 is lower in pIC50: greater than 7.50 for the first, less than 5.00 for the second.

For `COc1ccc([C@@H](O)c2cc(-c3ncnc4cc(N5CCOCC5)ccc34)c(F)cc2Cl)nn1` + Cc1cnc(CNC(=O)c2c(=O)c3ccc(N4CCCN(C)CC4)nc3n3c2sc2ccccc23)cn1, the pIC50 was 6.28.

Same assay, conditions: curve of first compound; second compound 3.16 µM; spheroids with HUVEC and MSC

First: CC1COCCN1c1cc(C2(O)CC3CCC(C2)O3)c2cnn(-c3ccn[nH]3)c2n1 (stereo unspecified) + Cc1cnc(CNC(=O)c2c(=O)c3ccc(N4CCCN(C)CC4)nc3n3c2sc2ccccc23)cn1
Second: O=C(c1cc(Cc2n[nH]c(=O)c3ccccc23)ccc1F)N1CCN(C(=O)C2CC2)CC1 + Cc1cnc(CNC(=O)c2c(=O)c3ccc(N4CCCN(C)CC4)nc3n3c2sc2ccccc23)cn1
The pIC50 of the first is higher: greater than 7.50 for the first, less than 5.00 for the second.

In the case of `COc1ccc([C@@H](O)c2cc(-c3ncnc4cc(N5CCOCC5)ccc34)c(F)cc2Cl)nn1` + Cc1cnc(CNC(=O)c2c(=O)c3ccc(N4CCCN(C)CC4)nc3n3c2sc2ccccc23)cn1, the pIC50 was 6.24.

Same assay, conditions: curve of first compound; second compound 10 µM; spheroids with HUVEC and MSC

`CC1COCCN1c1cc(C2(O)CC3CCC(C2)O3)c2cnn(-c3ccn[nH]3)c2n1` (stereo unspecified) + Cc1cnc(CNC(=O)c2c(=O)c3ccc(N4CCCN(C)CC4)nc3n3c2sc2ccccc23)cn1 and `O=C(c1cc(Cc2n[nH]c(=O)c3ccccc23)ccc1F)N1CCN(C(=O)C2CC2)CC1` + Cc1cnc(CNC(=O)c2c(=O)c3ccc(N4CCCN(C)CC4)nc3n3c2sc2ccccc23)cn1 cannot be ordered by pIC50: greater than 7.50 for the first, greater than 7.50 for the second.

In the case of `COc1ccc([C@@H](O)c2cc(-c3ncnc4cc(N5CCOCC5)ccc34)c(F)cc2Cl)nn1` + Cc1cnc(CNC(=O)c2c(=O)c3ccc(N4CCCN(C)CC4)nc3n3c2sc2ccccc23)cn1, the pIC50 was greater than 7.50.

Same assay, conditions: second compound 0.0316 µM; first compound 0.0316 µM; stronger effect = lower value; spheroids with HUVEC and MSC

Going from `CC1COCCN1c1cc(C2(O)CC3CCC(C2)O3)c2cnn(-c3ccn[nH]3)c2n1` (stereo unspecified) + Cc1cnc(CNC(=O)c2c(=O)c3ccc(N4CCCN(C)CC4)nc3n3c2sc2ccccc23)cn1 to `O=C(c1cc(Cc2n[nH]c(=O)c3ccccc23)ccc1F)N1CCN(C(=O)C2CC2)CC1` + Cc1cnc(CNC(=O)c2c(=O)c3ccc(N4CCCN(C)CC4)nc3n3c2sc2ccccc23)cn1, the viability, T/C rises from 50.7% to 103%.

`COc1ccc([C@@H](O)c2cc(-c3ncnc4cc(N5CCOCC5)ccc34)c(F)cc2Cl)nn1` + Cc1cnc(CNC(=O)c2c(=O)c3ccc(N4CCCN(C)CC4)nc3n3c2sc2ccccc23)cn1 showed a viability, T/C of 104%.

Same assay, conditions: second compound 0.0316 µM; first compound 0.1 µM; stronger effect = lower value; spheroids with HUVEC and MSC

Going from `CC1COCCN1c1cc(C2(O)CC3CCC(C2)O3)c2cnn(-c3ccn[nH]3)c2n1` (stereo unspecified) + Cc1cnc(CNC(=O)c2c(=O)c3ccc(N4CCCN(C)CC4)nc3n3c2sc2ccccc23)cn1 to `O=C(c1cc(Cc2n[nH]c(=O)c3ccccc23)ccc1F)N1CCN(C(=O)C2CC2)CC1` + Cc1cnc(CNC(=O)c2c(=O)c3ccc(N4CCCN(C)CC4)nc3n3c2sc2ccccc23)cn1, the viability, T/C rises from 27.5% to 85.1%.

With `COc1ccc([C@@H](O)c2cc(-c3ncnc4cc(N5CCOCC5)ccc34)c(F)cc2Cl)nn1` + Cc1cnc(CNC(=O)c2c(=O)c3ccc(N4CCCN(C)CC4)nc3n3c2sc2ccccc23)cn1 the viability, T/C was 88.2%.

Same assay, conditions: second compound 0.0316 µM; first compound 0.316 µM; stronger effect = lower value; spheroids with HUVEC and MSC

Compared with `CC1COCCN1c1cc(C2(O)CC3CCC(C2)O3)c2cnn(-c3ccn[nH]3)c2n1` (stereo unspecified) + Cc1cnc(CNC(=O)c2c(=O)c3ccc(N4CCCN(C)CC4)nc3n3c2sc2ccccc23)cn1, `O=C(c1cc(Cc2n[nH]c(=O)c3ccccc23)ccc1F)N1CCN(C(=O)C2CC2)CC1` + Cc1cnc(CNC(=O)c2c(=O)c3ccc(N4CCCN(C)CC4)nc3n3c2sc2ccccc23)cn1 is higher in viability, T/C: 19.5% for the first, 90.5% for the second.

In the case of `COc1ccc([C@@H](O)c2cc(-c3ncnc4cc(N5CCOCC5)ccc34)c(F)cc2Cl)nn1` + Cc1cnc(CNC(=O)c2c(=O)c3ccc(N4CCCN(C)CC4)nc3n3c2sc2ccccc23)cn1, the viability, T/C was 72.3%.

Same assay, conditions: second compound 0.0316 µM; first compound 1 µM; stronger effect = lower value; spheroids with HUVEC and MSC

Compared with `CC1COCCN1c1cc(C2(O)CC3CCC(C2)O3)c2cnn(-c3ccn[nH]3)c2n1` (stereo unspecified) + Cc1cnc(CNC(=O)c2c(=O)c3ccc(N4CCCN(C)CC4)nc3n3c2sc2ccccc23)cn1, `O=C(c1cc(Cc2n[nH]c(=O)c3ccccc23)ccc1F)N1CCN(C(=O)C2CC2)CC1` + Cc1cnc(CNC(=O)c2c(=O)c3ccc(N4CCCN(C)CC4)nc3n3c2sc2ccccc23)cn1 is higher in viability, T/C: 20.4% for the first, 82.8% for the second.

Work on `COc1ccc([C@@H](O)c2cc(-c3ncnc4cc(N5CCOCC5)ccc34)c(F)cc2Cl)nn1` + Cc1cnc(CNC(=O)c2c(=O)c3ccc(N4CCCN(C)CC4)nc3n3c2sc2ccccc23)cn1 yielded a viability, T/C of 43.9%.

Same assay, conditions: second compound 0.0316 µM; first compound 3.16 µM; stronger effect = lower value; spheroids with HUVEC and MSC

Compound `CC1COCCN1c1cc(C2(O)CC3CCC(C2)O3)c2cnn(-c3ccn[nH]3)c2n1` (stereo unspecified) + Cc1cnc(CNC(=O)c2c(=O)c3ccc(N4CCCN(C)CC4)nc3n3c2sc2ccccc23)cn1 has a viability, T/C of 18.7%.
